Values belong to the compound of their own block, whether it stands above or below them.
Legend:
[1] = Particle size distribution by dynamic light scattering (DLS); format: physicochemical
Experimental: Dynamic light scattering was used to evaluate size distribution of the nanocomplexes formed, and that of the pure protein. To produce particles containing the EGCG:β-Lg molar ratios 2:1, 4:1, 6:1, 8:1 and 10:1, two experiments were performed: • (1) β-Lg solution (0.54 mM, in 0.9 ml of 30 mM PBS, pH 7) was heated to 75° C. for 20 minutes, and then EGCG solutions (1.96 mM-10.25 mM, in 0.48 ml of 5 mM PBS, pH 2.5) were added. […] The final EGCG concentrations were 0.87 mM-4.36 mM (0.04%-0.2%), the final β-Lg concentration was 0.43 mM (0.8%) and the pH of the final solution was 6.88.
After polyphenol addition, samples were vortexed for 20 seconds and allowed to cool to room temperature before measurement.
Particle size distribution was studied by a dynamic light scattering (DLS) analyzer (NICOMP™ 380, Particle Sizing Systems Inc., Santa Barbara, Calif., USA) equipped with an Avalanche Photo Diode (APD) detector, used at a fixed angle of 90°. The 90 mW laser wavelength was 658 nm. Mono- bi- or tri-modal distributions were calculated from the scattered light intensity fluctuations, by cumulants Nicomp™ analysis of the auto correlation function (see supplementary information in (Shapira, Assaraf, & Livney, 2009) for a more complete method description). The size range for the Nicomp distribution analysis was set to 1-1,000 nm. Measurements were made in duplicates at 25° C. Table 3 and FIG. 7 show an increase in particle size with increasing EGCG concentration indicating the formation of preheated complexes/nanoparticles (75° C., 20 min before EGCG addition). The molar ratios of β-Lg to EGCG presented in FIG. 7 are: 1:0 (straight line), 1:2 (dotted line), 1:4 (broken line), 1:6 (bold line/dot/line; ? ), 1:8 (fine line/dot/line; ? ) and 1:10 (line/2 dots; ? ).
As detailed above, EGCG-β-Lg nanoparticles at neutral pH are smaller than 50 nm. In order to determine whether the addition of EGCG to the preheated β-Lg causes, in addition to a slight increase in size, a change in colloidal stability, different EGCG concentration solutions were added to the pre-heated β-Lg to create nano-complexes comprised of β-Lg:EGCG at molar ratios in the range of 1:0 to 1:8, while the β-Lg concentration remains constant at a neutral pH (6.8).
The size distribution of the nano-particles solution seemed to consist of two fractions. The first fraction included the small nano-particles in the range of 2-3 nm in diameter and the second fraction included nano-particles of about 15 nm. Since the size of the protein molecule is around 2 nm, it would be reasonable to assume that the smaller-size fraction represents unbound protein molecules or protein molecules with a few bound EGCG molecules, while the larger-size fraction represents complexes comprising several protein molecules, and probably also several EGCG molecules. […] It was important to see whether the increase in the fraction of the larger sized complexes causes a decrease in colloidal stability. Therefore the predicted stability of the same complexes was studied by measuring the electrophoretic mobility (EM) of the nanocomplexes (FIG. 9B). For uniform and moderate electric fields, a linear relationship usually exists between the steady-state electrophoretic mobility and the zeta potential value (Delgado, et al. (2007) Journal of Colloid and Interface Science, Vol. 309, pages 194-224). The zeta potential is calculated according to the measured electrophoretic mobility using several theoretical models available. The choice of a suitable model is carried out according to the ratio of the particle radius (a) and the Debye length (κ−1) (i.e. a/κ−1=κ*a) which characterize the studied composition. […] In the composition of the invention for the smaller particles (of ˜2-3 nm) the κ*a was approximately 1.5. For the larger complexes of about 15 nm, the κ*a value was approximately 7.5. […]

[2] = target: T1, native β-Lg (Bos taurus, UniProt P02754); experiment: Intrinsic protein fluorescence quenching: binding of EGCG to native β-Lg (Langmuir-based model and modified Stern-Volmer); design: species or system bovine; conditions: without preheating (RT)
T1 construct: Beta-lactoglobulin (β-Lg, 18.4 kDa, 162 amino acids) is the major whey protein in cow milk; purchased
T1 sequence (P02754 17-178): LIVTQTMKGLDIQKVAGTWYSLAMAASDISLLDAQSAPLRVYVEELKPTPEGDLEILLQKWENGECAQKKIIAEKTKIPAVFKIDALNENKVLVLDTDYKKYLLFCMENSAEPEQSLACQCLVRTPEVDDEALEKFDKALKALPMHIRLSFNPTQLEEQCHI
Experimental: (§1) It is based on exciting at 280 nm the Trp and Tyr residues of bovine β-Lg (bovine β-Lg contains two Trp residues and four Tyr residues) and at 295 nm where only Trp residues are excited though the quantum yield of the Trp itself is smaller than that at 280 nm.
(§2) All fluorescence measurements were performed at room temperature. β-Lg solution (2.09 μM in 1.9 ml of 30 mM PBS, pH 6.86) was heated at 75° C. for 20 minutes, or kept at room temperature. The co-assembly preparation process was done as described above. All measurements were performed after equilibrating the solutions at room temperature for 3 hours. EGCG solutions were 0-400 μM in 0.1 ml of 30 mM PBS, pH 2.44. All samples were prepared in triplicates. The pH of the final solutions was 6.86. β-Lg fluorescence was measured at constant protein concentration of 2 μM and EGCG concentrations of 0-20 μM using a Fluorolog 3-22 spectrofluorometer (Horiba, Jobin Yvon, Longjumeau, France) at a Right-Angle mode. Emission spectra were recorded from 290 to 510 nm with an excitation wavelength of 280 nm, and from 305 to 520 nm with an excitation wavelength of 295 nm, employing 5 nm slit widths. The statistical analysis and non-linear curve fitting were performed using Origin 8 (OriginLab, Northampton, USA).
(§3) Trp61 is reportedly quenched in the native state due to proximity to the Cys66-Cys160 disulfide bond, while Trp 19 is located in a non-polar environment within the cavity of the β-barrel structure, and is responsible for most of the Trp (and the protein) fluorescence. A small shift in the maximal emission wavelength of the protein occurred upon heating and was more clearly observed at the excitation wavelength attributed to Trp alone (295 nm). As only small shifts in the maximal wavelength occurred, all analyses were performed at emission of 343 nm for both excitation wavelengths. When studying the binding of EGCG to β-LG by fluorescence, it is important to keep in mind that EGCG, and not only β-LG, absorbs energy, both at the protein's excitation and, to a lower extent, at the emission wavelengths. Consequently, an inner filtering effect occurs, which intensifies with increasing EGCG concentration, reducing the amount of available energy to excite the protein' s fluorescent groups and absorbing some of the emitted energy too. To overcome this effect, the emission at 343 nm was corrected according to Beer-Lambert's law, using equation 1:
(§4) F=Fu·10^QL(ε^λex^+ε^λem^) (Equation 1)
(§5) where Fu is the measured, uncorrected emission intensity, ελex and ελem—the molar extinction coefficients of EGCG at the excitation and emission wavelengths respectively (measured spectrophotometrically, in the same buffer), Q is the quencher (EGCG) concentration in the cell and L is the path length assumed to be 0.5 cm each for the excitation and emission.
(§6) The analysis for determination of the binding constants was performed using a Langmuir-based model, assuming one affinity-class of binding sites, as described by equation (2): […]
(§7) where F and F0 are the fluorescence intensities of the protein solution in the presence and in the absence of the ligand, respectively; F∞ is the fluorescence when the protein is saturated with the ligand and L0 is the total ligand concentration. The decrease in the fluorescence in the presence of different EGCG concentrations was recorded, and the association constant (Ka) as well as the value for maximum fluorescence difference (ΔFmax=F0−F∞) were calculated by non-linear curve fitting to equation 2 (FIG. 5). The parameters for the fitting were based on the quenching of Tyr and Trp fluorescence at pH 6.87, for β-Lg concentration of 2 μM.
(§8) Fluorescence quenching is often described by the Stern-Volmer equation (3): […]
(§9) where F0 and F are the fluorescence intensities before and after the addition of the quencher, respectively, KSV is the Stern-Volmer quenching constant and [Q] is the concentration of the quencher. […]

[3] = Protection against EGCG oxidation: absorbance at 425 nm over time; format: physicochemical
Experimental: Aliquots of 2.5 ml EGCG solution were transferred to 1 cm path length spectrophotometer cuvettes and covered with parafilm to prevent evaporation. […] Solutions of 0.52 mM (0.95%) protein at a 2:1 molar ratio (EGCG:protein) and pH 6.85 were compared to pure EGCG solutions. The protein was preheated at 2 temperatures (75° C. and 85° C.) for 20 minutes or kept at room temperature, to compare the protection provided by the partially denatured protein to that of the native protein. The reason for testing these two temperatures was that according to the literature, at about this pH, between 65-75° C. small proteins oligomers are formed, while between 75-85° C. some aggregation of the oligomers occurs. […] Appropriate controls of β-Lg without EGCG and EGCG without β-Lg at the respective concentrations and pH were performed. After preparation, the samples were placed in 1 cm path length spectrophotometer cuvettes and covered with parafilm. […]

[4] = target: T2, preheated β-Lg (75° C., 20 min) (Bos taurus, UniProt P02754); experiment: Intrinsic protein fluorescence quenching: binding of EGCG to preheated β-Lg (Langmuir-based model and modified Stern-Volmer); design: species or system bovine; conditions: for KSVa ± S.E. (Stern-Volmer quenching constant) / fa ± S.E. (fraction of fluorophore-sites accessible): preheated 20 min 75° C.; for Ka ± S.E.: protein preheated 20 min 75° C. before adding EGCG
T2 construct: Beta-lactoglobulin (β-Lg, 18.4 kDa, 162 amino acids) is the major whey protein in cow milk; purchased
T2 sequence (P02754 17-178): T1 sequence (P02754 17-178)
Experimental: as §1, §2, §3, §4, §5, §6, §7, §8, §9

[5] = sodium phosphate buffer (pH 7.4); 3 hr; cited from earlier work
[6] = Loading efficiency and loading ratio of EGCG by centrifugal ultrafiltration; format: physicochemical; conditions: both β-Lg concentrations (0.5% and 1% w/w)
Experimental: The loading efficiency (the percentage of encapsulated substance out of total material added to the composition) and loading ratio (the ratio between the encapsulated substance and the encapsulation matrix) of EGCG was determined. β-Lg-EGCG nanoparticles solutions, of 2:1 and 8:1 EGCG: β-Lg molar ratios, were prepared at 1% w/w and 0.5% w/w protein solution. The entrapped EGCG in β-Lg nanoparticles was separated from the free EGCG by centrifugal ultrafiltration as described above. The molar loading ratio and the loading efficiency are presented on Table 4.

[7] = β-Lg 0.35 mM (0.65% (w/w) pH 6.56)
[8] = β-Lg 0.43 mM (0.8% (w/w) pH 6.56)

Compound: 1:0: preheated β-lactoglobulin without EGCG (major whey protein in cow milk, 18.4 kDa)
size ([1]; rough summary of Table 3): around 2 nm
d, Peak I (β-Lg) [1, 7]: 4.8 nm
fvw, Peak I (β-Lg) [1, 7]: 99.6%
d, Peak I (β-Lg) [1, 8]: 1.4 nm
d, Peak II (β-Lg-EGCG) [1, 8]: 20.2 nm
fvw, Peak I (β-Lg) [1, 8]: 99.8%
fvw, Peak II (β-Lg-EGCG) [1, 8]: 0.2%

KSVa ± S.E. (Stern-Volmer quenching constant) ([2]; excitation 280 nm): 1.4 ± 0.7 10^5 M^−1
Ka ± S.E. ([2]; excitation 280 nm): 1.05 ± 0.34 10^5 M^−1
fa ± S.E. (fraction of fluorophore-sites accessible) ([2]; excitation 280 nm): 0.16 ± 0.07
KSVa ± S.E. (Stern-Volmer quenching constant) ([2]; excitation 295 nm): 1.4 ± 0.7 10^5 M^−1
Ka ± S.E. ([2]; excitation 295 nm): 1.9 ± 0.6 10^5 M^−1
fa ± S.E. (fraction of fluorophore-sites accessible) ([2]; excitation 295 nm): 0.15 ± 0.06
increase in the 425 nm absorbance with time ([3]; EGCG solution (0.05%) in pH 2.5 PBS): no increase
EGCG degradation rate (increase in absorbance at 425 nm) ([3]; eight days at room temperature, EGCG 1.09 mM (0.05%), β-Lg 0.52 mM, pH 6.85): fastest increase in the absorbance
KSVa ± S.E. (Stern-Volmer quenching constant) ([4]; excitation 280 nm): 3.31 ± 0.7 10^5 M^−1
fa ± S.E. (fraction of fluorophore-sites accessible) ([4]; excitation 280 nm): 0.32 ± 0.05
Ka ± S.E. ([4]; excitation 280 nm): 3.7 ± 0.67 10^5 M^−1
KSVa ± S.E. (Stern-Volmer quenching constant) ([4]; excitation 295 nm): 3.07 ± 1.05 10^5 M^−1
fa ± S.E. (fraction of fluorophore-sites accessible) ([4]; excitation 295 nm): 0.25 ± 0.07
Ka ± S.E. ([4]; excitation 295 nm): 3.3 ± 1.07 10^5 M^−1
Ka (association constant, Langmuir-based model fit) ([4]; pH 6.87, β-Lg 2 μM, FIG. 5 fit): 370000 ± 67000 M⁻¹
ΔFmax*10^6 (maximum fluorescence difference) ([4]; pH 6.87, β-Lg 2 μM, FIG. 5 fit): 3.31±0.17
Compound: O=C(O[C@@H]1Cc2c(O)cc(O)cc2O[C@@H]1c1cc(O)c(O)c(O)c1)c1cc(O)c(O)c(O)c1 [EGCG, (−)-Epigallocatechin-3-gallate]
degradation rate (absorbance at 425 nm) ([3]; PBS pH 6.8, EGCG 0.05%-0.5%): degradation rate increased with rising EGCG concentration
EGCG lost [5]: 80%

Compound: Cn1c(=O)c2c(ncn2C)n(C)c1=O [caffeine]
binding or entrapment in β-Lg [6]: did not show any binding or entrapment
